Results reported in patent US6989386B2, “Pharmaceutically active ornithine derivatives, ammonium salts thereof and methods of making same” (Dana-Farber Cancer Institute, priority 2002, dated 2006).

Key:
[1] = molecular target: T1, dihydrofolate reductase (DHFR) (Mus musculus, UniProt P00375); conditions: reported, Rosowsky et al., J. Med. Chem. 1986; cited from earlier work
T1 sequence (P00375 1-187): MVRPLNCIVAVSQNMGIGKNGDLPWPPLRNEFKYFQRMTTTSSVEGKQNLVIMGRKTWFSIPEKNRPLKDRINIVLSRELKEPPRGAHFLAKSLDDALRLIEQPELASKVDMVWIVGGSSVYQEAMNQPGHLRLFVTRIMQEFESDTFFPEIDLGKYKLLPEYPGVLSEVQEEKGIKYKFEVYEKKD

[2] = test system: folylpolyglutamate synthetase (FPGS); conditions: reported, Rosowsky et al., J. Med. Chem. 1986; cited from earlier work
[3] = test system: cell growth in culture; conditions: reported, Rosowsky et al., J. Med. Chem. 1986; cited from earlier work

Question: With `NCCC[C@H](NC(=O)c1ccc(NCc2cnc3nc(N)nc(N)c3n2)cc1)C(=O)O` [APA-L-Orn, N^α-(4-amino-4-deoxypteroyl)-L-ornithine] as the compound, how does the “Inhibition of dihydrofolate reductase (DHFR)” value [1] read?
Answer: The value was “potent inhibitor”.

Question: What about the “Inhibition of folylpolyglutamate synthetase (FPGS)” value [2] of the same compound?
Answer: Its value is “potent inhibitor”.

Question: And the “Inhibition of cell growth in culture” value [3]?
Answer: The value was “relatively inactive”.

Question: Which “Stability when dissolved in dilute ammonium hydroxide” value (dilute ammonium hydroxide solution) does the source give for `Nc1nc(N)c2nc(CNc3ccc(C(=O)N[C@@H](CCCNC(=O)c4ccccc4C(=O)O)C(=O)O)cc3)cnc2n1` [compound 7, N^α-(4-Amino-4-deoxypteroyl)-N^δ-hemiphthaloyl-L-ornithine] here?
Answer: Its value is “relatively stable”.

Question: For `N.N.Nc1nc(N)c2nc(CNc3ccc(C(=O)N[C@@H](CCCNC(=O)c4ccccc4C(=O)O)C(=O)O)cc3)cnc2n1` [compound 8, N^α-(4-Amino-4-deoxypteroyl)N^δ-hemiphthaloyl-L-ornithine ammonium salt], which “Product decomposition on lyophilization of the ammonium hydroxide solution” value (lyophilization of dilute ammonium hydroxide solution) is on record?
Answer: Its value is “minimal”.
